Values after ≈ are worked out from the molar mass of the structure shown.
Tests used:
SGC-7901 = assay: MTT cell proliferation assay, SGC-7901; format: cell-based, human; conditions: Homo sapiens, SGC-7901, 48 h, SGC-7901 gastric cancer, read-out: IC50
Method: (§1) The effects of the synthesized amide anthraquinone derivatives on the proliferative activity of eight human cancerous cell lines (EC9706, MCF-7, SGC-7901, HepG2, QBC939, HeLa, HCT116 and SW480) in addition to two normal human cell lines (colorectal FHC and liver HL7702) were evaluated using the standard MTT assay.
(§2) The human esophageal cancer cell line EC9706 was obtained from Cancer Hospital and Institute by Prof. Ming Rong Wang, Chinese Academy Medical of Sciences. The human colorectal carcinoma cell lines HCT116 and SW480, hepatoma cell line HepG2, cervical carcinoma cell line HeLa, breast cancer cell line MCF-7, gastric cancer cell line SGC-7901, cholangiocarcinoma cell line QBC939, normal fetal colon cell line FHC and liver cell line HL-7702 were obtained from the Cell Bank of the Shanghai Chinese Academy of Sciences. All cells were cultured in RPMI 1640 medium containing 100 U/mL penicillin and streptomycin and 10% fetal bovine serum and maintained at 37°C under a 5% CO2 atmosphere.
(§3) We analyzed the inhibitory effects of eight anthraquinone-amino acid derivatives on the proliferation of eight tumor cell lines and two normal cell lines in vitro using MTT assays. Cells were added to a 96-well plate with (5,000 cells per well in 100 µL RPMI-1640 medium). Cells were treated with different concentrations (10–100 μg/mL) of 8a–8h for 48 h and then incubated with 20 μL MTT (5 mg/mL) for another 4 h at 37°C. DMSO (150 μL) was then added to each well to dissolve the formazan crystals. The absorbance of each well was read at 490 nm on a microtiter plate ELISA reader. The mean values were obtained from a minimum of three parallel experiments. IC50 values were calculated.

HeLa = assay: MTT cell proliferation assay, HeLa; format: cell-based; conditions: Homo sapiens, HeLa cervical cancer, 48 h
Method: as §1, §2, §3

[1] = system: mitochondrial membrane potential of HCT116 cells; assay: Mitochondrial membrane potential, JC-1 flow cytometry; format: cell-based, human; conditions: 24 h
Method: Decreased mitochondrial membrane potential is a hallmark of early cell apoptosis, and a decrease in mitochondrial membrane potential leads to the release of certain mitochondrial proteins, such as cytochrome c, which mediate apoptosis. Therefore, we examined changes in mitochondrial membrane potential by flow cytometry. HCT116 cells were treated with 8a (10 or 20 μg/mL) for 24 h and then stained with 2 μg/mL JC-1 for 30 min prior to flow cytometric analysis. Green /orange fluorescence ratio of JC-1, compare with control, is 200% and 494.4%, respectively (Figure 8E,F). […] During apoptosis, mitochondrial cytochrome C is released into the cytoplasm and triggers the activation cascade of caspase. HCT116 cells were collected after 8a treatment, cytoplasmic protein and mitochondrial protein were extracted. The levels of cytochrome c in the cytoplasm and mitochondria were detected by Western blotting. After treatment of HCT116 cells with 8a (10 or 20 μg/mL) for 24 h, cytoplasmic levels of cytochrome c increased, while the levels in the mitochondria decreased.
The 1×10^4 cells were treated with different concentrations of 8a for 24 h. Cells were then incubated with 500 μL JC-1 ([…]) for 30 min at 37 °C in the dark. The level of mitochondrial membrane potential depolarization was measured by flow cytometry. Data were analyzed using the Cell Quest program (BD, New York, The United States).

[2] = system: caspase 9, cleaved caspase 9, caspase 3, cleaved caspase 3; assay: Western blot, caspases; format: cell-based, human; conditions: HCT116, western blot
Excerpt: Caspases represent a key molecular group in the regulation of apoptosis. In caspases, there is an upstream and downstream relationship between the initiator of apoptosis and executioner. Caspase 3 is one of the key executers of apoptosis, as it is either partially or totally responsible for the proteolytic cleavage of many key proteins. For example, when caspase 9 is activated, it activates caspase 3, which ultimately triggers cell apoptosis. After detecting the expression of the corresponding Bcl-2 family proteins after 8a treatment by western blotting, we went on to detect the expression levels of PARP, caspase 9, cleaved caspase 9, caspase 3, and cleaved caspase 3 proteins. […] After 24 h of treatment with zVAD-FMK, cell viability is 93%.
The expression of signaling pathway-related proteins was detected by western blot analysis. Cell (1 × 10^6) were plated in 90-mm dishes and treated with 8a for 24 h. The cells were treated with NAC in the same way as in step 4.7. Resuspend the cells in Buffer A (1 mM EDTA, 1 mM PMSF, 0.28 μg/mL apotinin, 50 μg/mL leupeptin, 7 μg/mL pepstain A) and transferred to a 1 mL glass homogenizer and pull up and down 30 times in an ice bath. Cells were collected and centrifuged (1000 g × 10 min, 4 °C). […] Protein concentrations in the supernatant were determined by using a Minbio BCA protein assay kit. […]

MCF-7 = assay: MTT cell proliferation assay, MCF-7; format: cell-based; conditions: Homo sapiens, MCF7, MCF-7 breast cancer, 48 h
Method: as §1, §2, §3

HepG2 = assay: MTT cell proliferation assay, HepG2; format: cell-based; conditions: Homo sapiens, HepG2 liver cancer, 48 h
Method: as §1, §2, §3

IC50 (SGC-7901): 55.82 ± 0.16 µg/mL (≈ 136 µM)
IC50 (HeLa): 29.75 ± 0.15 µg/mL (≈ 72.5 µM)
IC50 (MCF-7): 33.34 ± 0.28 µg/mL (≈ 81.2 µM)
IC50 (HepG2): 44.65 ± 0.03 µg/mL (≈ 109 µM)
SMILES: CC(C)CC(NC(=O)c1ccc2c(c1[N+](=O)[O-])C(=O)c1ccccc1C2=O)C(=O)O (stereo not drawn) [Compound 8a, N-[(9,10-dihydro-1-nitro-9,10-dioxo-2-anthracenyl)carbonyl-leucine]]
Green/orange fluorescence ratio of JC-1, compared with control ([1]; 10 μg/mL): 200%
Green/orange fluorescence ratio of JC-1, compared with control ([1]; 20 μg/mL): 494.4%
mitochondrial membrane potential (in words) ([1]; 10 or 20 μg/mL): decreased the mitochondrial membrane potential in a dose-dependent manner
expression of cleaved caspase 9 and cleaved caspase 3 [2]: increased in a dose-dependent manner
caspase 9 and caspase 3 expression levels ([2]; with increasing 8a concentration): gradually decreased

From PMC7180728, “Novel Anthraquinone Compounds Inhibit Colon Cancer Cell Proliferation via the Reactive Oxygen Species/JNK Pathway” (Molecules, 2020)
